Several values for one entry are separate records, joined by “and”; a condition that tells them apart may be missing. Equal values may be shown once.
Assays:
[1] = molecular target: T1, human HSD17B11 (Homo sapiens, UniProt Q8NBQ5); assay: Thermal shift assay (static light scattering, Tagg), human HSD17B11; format: binding; details: Fig. 6d, 500 μM NAD+
T1 construct: human HSD17B11 (residues 2-300, NP_057329.3); 10x His (N); TEV protease site (N); made in house; host or cells: Sf9 (baculovirus)
T1 sequence (Q8NBQ5 2-300): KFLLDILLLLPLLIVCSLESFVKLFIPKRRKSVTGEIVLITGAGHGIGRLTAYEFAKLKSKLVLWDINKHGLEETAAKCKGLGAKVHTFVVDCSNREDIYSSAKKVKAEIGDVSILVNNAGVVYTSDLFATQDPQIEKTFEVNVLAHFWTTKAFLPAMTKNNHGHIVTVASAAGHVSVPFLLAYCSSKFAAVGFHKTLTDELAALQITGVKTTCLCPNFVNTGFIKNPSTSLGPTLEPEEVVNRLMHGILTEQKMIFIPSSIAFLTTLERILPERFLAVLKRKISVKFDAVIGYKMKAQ
Description: Because of the low enzymatic activities of dog wild-type HSD17B13 (Fig. 6a) and HSD17B11 with β-estradiol, it was difficult to measure compound inhibition of these proteins in a biochemical assay and we instead utilized direct binding methods to compare compounds interaction with different proteins. To understand ligand binding, we tested several approaches such as surface plasmon resonance and isothermal calorimetry. Like many membrane/detergent-associated proteins, however, these methods were not amenable for HSD17B13. We next turned to thermal shift assays (TSA) for comparing ligand binding affinities. TSA measures the changes in the thermal denaturation temperature of a protein under different conditions such as the presence compound, changes in buffer conditions, or sequence mutations. There are various readouts including intrinsic fluorescence or light scattering signals. We chose the static light scattering methods to detect the temperatures at which our proteins start to aggregate (Tagg), which are more suitable for membrane proteins that require detergent micelles for stability. Given that in theory[51] and in practice Tagg continues to increase with concentration of ligands far above their IC50s, we used high cofactor and inhibitor concentrations in the TSA experiments to maximize the ligand binding signal.
(§1) TSA studies were run on the UNit instrument (Unchained Labs, CA, USA). Experiments were run in either 25 mM sodium phosphate pH 7, 150 mM NaCl, 10% glycerol, 1 mM TCEP, 0.05% DDM, + different cofactors (NAD^+, NADH, NADP, NADPH; MilliporeSigma) or 25 mM HEPES pH 7.2, 300 mM NaCl, 0.5 mM TCEP, 0.05% DDM, 10% glycerol, ±500 µM NAD^+, and ±100 µM compound 1 (from 2 mM DMSO stock) or DMSO or 50 mM Hepes pH 7.5, 300 mM NaCl, 0.5 mM TCEP, 0.05% DDM, 500 µM NAD^+, ± 50 µM compounds (from 2 mM stock) or DMSO. Protein aggregation was measured by static light scattering at 266 and 473 nm with a 1 °C/sec ramp rate from 20-80 °C. The data was processed using the UNcle software (Unchained Labs, CA, USA), and temperatures at which the protein started aggregation were recorded as Tagg. Reported Tagg and analysis were based on measurements at 266 nm unless otherwise indicated. The protein concentration used was 10.4 μM.

[2] = molecular target: T2, human HSD17B13 (Homo sapiens, UniProt Q7Z5P4); assay: Thermal shift assay (static light scattering, Tagg), human HSD17B13; format: binding; details: Fig. 6c; 500 μM NAD+ alone, no compound
T2 construct: human HSD17B13 (residues 2-300, NP_835236.2); 10x His (N); TEV protease site (N); made in house; host or cells: Sf9 (baculovirus)
T2 sequence (Q7Z5P4 2-300): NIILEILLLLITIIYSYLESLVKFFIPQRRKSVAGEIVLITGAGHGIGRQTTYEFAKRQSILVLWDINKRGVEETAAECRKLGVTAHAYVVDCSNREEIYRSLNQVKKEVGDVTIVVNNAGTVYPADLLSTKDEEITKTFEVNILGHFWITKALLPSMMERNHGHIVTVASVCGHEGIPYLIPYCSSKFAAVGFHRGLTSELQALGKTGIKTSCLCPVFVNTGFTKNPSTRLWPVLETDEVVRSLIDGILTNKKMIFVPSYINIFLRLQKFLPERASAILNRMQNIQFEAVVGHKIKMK
Description: To understand ligand binding, we tested several approaches such as surface plasmon resonance and isothermal calorimetry. […] We next turned to thermal shift assays (TSA) for comparing ligand binding affinities. TSA measures the changes in the thermal denaturation temperature of a protein under different conditions such as the presence compound, changes in buffer conditions, or sequence mutations. There are various readouts including intrinsic fluorescence or light scattering signals. We chose the static light scattering methods to detect the temperatures at which our proteins start to aggregate (Tagg), which are more suitable for membrane proteins that require detergent micelles for stability.
as §1, with “indicated.” for “indicated. The protein concentration used was 10.4 μM.”

[3] = molecular target: human mutant HSD17B13 (Q60K/I62R/R71H/E161K) (human) (UniProt Q7Z5P4); assay: crystal structure; human mutant HSD17B13 with 1 mM NAD+, 1 mM compound 2 and 0.5% β-octyl-glucoside; 25% PEG3350, 0.1 M Bis-Tris pH 5.5, 0.2 M Li2SO4; room temperature
[4] = molecular target: the molecule itself; assay: crystal structure; dog HSD17B13 at 12 mg/ml with 1 mM NAD+, 1 mM compound 1 and 0.125% β-octyl-glucoside; 30% PEG3350, 0.2 M ammonium chloride; room temperature; apo crystals by soaking with buffer containing NAD+ only

Cc1ccc(S(=O)(=O)c2cc(C)cc(S(=O)(=O)Nc3ccc(C(=O)O)cc3)c2C)cc1 [Compound 2]
effect on protein stability in TSA [1]: neither 1 nor 2 showed an effect on protein stability | Tagg ([1]; 50 µM compound): 40.37 °C and 38.02 °C and 40.65 °C and 41.03 °C and 39.22 °C and 40.82 °C and 39.77 °C and 38.1 °C

NC(=O)c1ccc[n+]([C@@H]2O[C@H](COP(=O)([O-])OP(=O)(O)OC[C@H]3O[C@@H](n4cnc5c(N)ncnc54)[C@H](O)[C@@H]3O)[C@@H](O)[C@H]2O)c1 [NAD, nicotinamide adenine dinucleotide]
Tagg, individual measurements [2]: 43.6 °C (2×) and 38.9 °C and 40.5 °C and 42 °C and 41.7 °C (2×) and 41 °C

human mutant HSD17B13 (Q60K/I62R/R71H/E161K) (from UniProt Q7Z5P4-1 20-300) (enzyme)
stoichiometry N [3]: 2

B1: dog wild-type HSD17B13 (hydroxysteroid 17-beta-dehydrogenase 13) (enzyme, UniProt A0A8C0PP93 1-300, looked up)
chain: MNIILDLLLLLLTIIYSYLEALVKVFFPRKRKSVAGEIVLITGAGHGIGRWTAYEFAKQKSRLVLWDINKHGVEETAAECRKLGATVHTFVVDCGNREDIYNSVKQVKKEVGDVTILVNNAGTVYPADLLSTKDEEITKTFEINILGHFWITKALLPSMIKRNHGHIVTVASVCGHGVIPYLIPYCSSKFAAVGFHRALTLELQTLGITGIKTSCLCPVFVNTGFTKNPSTRLWPILETDTVARSLIDGILTNKKMIFVPSYYNIYLILDKFLPERALAAINHLQNIQFEAVIGHKTRMK
notes: HSD17B13, dog, AA1-300 of XP_038300006.1; Crystallised with NAD+ and compound 1; the apo (NAD+ only) crystals were made by soaking compound 1 out; It is held in two of the entries PDB 8G84, 8G89, 8G93 and 8G9V; also called Dog WT; dog WT HSD17B13; source: Sf9 (baculovirus), solubilised from membranes with C12E8, purified (NiNTA, SEC)
stoichiometry N [4]: 2

B2: dog mutant HSD17B13 (G177E/V178G/T205A/I293V) (enzyme, UniProt A0A8C0PP93 1-300, looked up)
chain: MNIILDLLLLLLTIIYSYLEALVKVFFPRKRKSVAGEIVLITGAGHGIGRWTAYEFAKQKSRLVLWDINKHGVEETAAECRKLGATVHTFVVDCGNREDIYNSVKQVKKEVGDVTILVNNAGTVYPADLLSTKDEEITKTFEINILGHFWITKALLPSMIKRNHGHIVTVASVCGHEGIPYLIPYCSSKFAAVGFHRALTLELQALGITGIKTSCLCPVFVNTGFTKNPSTRLWPILETDTVARSLIDGILTNKKMIFVPSYYNIYLILDKFLPERALAAINHLQNIQFEAVVGHKTRMK
notes: HSD17B13, dog, AA1-300 of XP_038300006.1, with four residues at the compound 1 site changed to the human ones; It is held in one of the entries PDB 8G84, 8G89, 8G93 and 8G9V; also called dog quadruple mutant; mutated dog HSD17B13; source: Sf9 (baculovirus), solubilised from membranes with C12E8, purified (NiNTA, SEC)
stoichiometry N [4]: 2

— PMC10449848, “Structural basis of lipid-droplet localization of 17-beta-hydroxysteroid dehydrogenase 13” (Nature Communications, 2023)
